According to patent US20150181873A1, “HERBICIDE-RESISTANT SUNFLOWER PLANTS, POLYNUCLEOTIDES ENCODING HERBICIDE=RESISTANT ACETO HYDROXY ACID SYNTHASE LARGE SUBUNIT PROTEINS, AND METHODS OF USE” (NIDERA S.A., priority 2013, published 2015):
“And” between values parts separate entries of the source, which are not always exact repeats. Identical values can stand only once.

Tested on: sunflower genotypes carrying the A122T mutation event
Test: Greenhouse imazapir dose response, A122T genotypes together
Type: in vivo, Helianthus annuus
Details: 14 DAT; for biomass accumulation, Dif with control / plant height, Dif with Control / root dry weight, Dif with control: A122T mean; for Phytotoxicity Index, Dif A205V − A122T / biomass accumulation, Dif A122T − A205V / plant height, Dif A122T − A205V / root dry weight, Dif A122T − A205V: difference of group means; for biomass accumulation, % of untreated, Mean / plant height, % of untreated, Mean / root dry weight, % of untreated, Mean: six A122T genotypes; for Phytotoxicity Index, Mean: three A122T genotypes
Experimental: A greenhouse study was conducted to quantify and contrast the imazapir sensivity of the mutants A122T and A205V in different genetic backgrounds at the whole plant level in sunflower. Seeds of the different sunflower lines that were used in this study were obtained under field conditions.
Seeds were sown in Petri dishes and, after germination, plantlets were transplanted to pots of 10 cm of diameter in a potting media consisting of equal parts of vermiculite, soil and sand. Plants were grown in a greenhouse under natural light conditions supplemented with 400 W sodium halide lamps to provide a 16 hrs daylength. Day/night temperatures were 25 and 20° C., respectively. At the V2 stage 10 plants of each genotype were randomly assigned to each treatment consisting of […] imazapir doses (0, 40, 80, 160, 240, 320, 400 and 480 g ai/ha), and a zero-time biomass determination. Experiment was arranged as a randomized block design with a full factorial (sunflower line×treatment) arrangement of treatments and 10 replications.
On the day of herbicide application ten plants of each genotype were cut at the cotyledonal node and dried at 60° C. for 48 hrs zero-time for dried weight determination. […] Height was determined as the distance between the cotyledonal node and the apex of each plant. For root biomass determination, each plant was taken from the pot and the potting media was washed out from the roots. Above ground biomass data from each line were converted to biomass accumulation after application by subtracting the appropriate average zero-time biomass from each sample. Dry biomass data were converted to percentages of the untreated control plants within each line to allow direct comparisons between groups.

CC(C)C1(C)N=C(c2ncccc2C(=O)O)NC1=O (centres unmarked) [Imazapyr, imazapyr]
biomass accumulation, Dif with control (0.5x (40 g ai/ha)): 1.1% | plant height, Dif with Control (0.5x (40 g ai/ha)): 0.6% | root dry weight, Dif with control (0.5x (40 g ai/ha)): 0.1% | biomass accumulation, Dif with control (1x (80 g ai/ha)): 3.2% | plant height, Dif with Control (1x (80 g ai/ha)): 1.4% | root dry weight, Dif with control (1x (80 g ai/ha)): 2.5% | biomass accumulation, Dif with control (2x (160 g ai/ha)): 5.1% | plant height, Dif with Control (2x (160 g ai/ha)): 2.7% | root dry weight, Dif with control (2x (160 g ai/ha)): 5.9% | biomass accumulation, Dif with control (3x (240 g ai/ha)): 7.2% | plant height, Dif with Control (3x (240 g ai/ha)): 4.4% | root dry weight, Dif with control (3x (240 g ai/ha)): 10.6% | biomass accumulation, Dif with control (4x (320 g ai/ha)): 12.2% | plant height, Dif with Control (4x (320 g ai/ha)): 6.3% | root dry weight, Dif with control (4x (320 g ai/ha)): 18.6% | biomass accumulation, Dif with control (5x (400 g ai/ha)): 20.7% | plant height, Dif with Control (5x (400 g ai/ha)): 10.2% | root dry weight, Dif with control (5x (400 g ai/ha)): 21.3% | plant height, Dif with Control (6x (480 g ai/ha)): 15.8% | root dry weight, Dif with control (6x (480 g ai/ha)): 38.3% | biomass accumulation, Dif with control (6x (480 g ai/ha), listed as imazapir): 25% and 25.4% | Phytotoxicity Index, Dif A205V − A122T (0.5x (40 g ai/ha)): −0.29 | biomass accumulation, Dif A122T − A205V (0.5x (40 g ai/ha)): 4.3% | plant height, Dif A122T − A205V (0.5x (40 g ai/ha)): 4.9% | root dry weight, Dif A122T − A205V (0.5x (40 g ai/ha)): 12.7% | Phytotoxicity Index, Dif A205V − A122T (1x (80 g ai/ha)): −0.29 | biomass accumulation, Dif A122T − A205V (1x (80 g ai/ha)): 14.5% | plant height, Dif A122T − A205V (1x (80 g ai/ha)): 9.4% | root dry weight, Dif A122T − A205V (1x (80 g ai/ha)): 26.7% | Phytotoxicity Index, Dif A205V − A122T (2x (160 g ai/ha)): 1.87 | biomass accumulation, Dif A122T − A205V (2x (160 g ai/ha)): 33.2% | plant height, Dif A122T − A205V (2x (160 g ai/ha)): 28.0% | root dry weight, Dif A122T − A205V (2x (160 g ai/ha)): 43.6% | Phytotoxicity Index, Dif A205V − A122T (3x (240 g ai/ha)): 4.81 | biomass accumulation, Dif A122T − A205V (3x (240 g ai/ha)): 45.3% | plant height, Dif A122T − A205V (3x (240 g ai/ha)): 45.3% | root dry weight, Dif A122T − A205V (3x (240 g ai/ha)): 50.2% | Phytotoxicity Index, Dif A205V − A122T (4x (320 g ai/ha)): 6.92 | biomass accumulation, Dif A122T − A205V (4x (320 g ai/ha)): 52.4% | plant height, Dif A122T − A205V (4x (320 g ai/ha)): 59.9% | root dry weight, Dif A122T − A205V (4x (320 g ai/ha)): 50.3% | Phytotoxicity Index, Dif A205V − A122T (5x (400 g ai/ha)): 7.38 | biomass accumulation, Dif A122T − A205V (5x (400 g ai/ha)): 46.9% | plant height, Dif A122T − A205V (5x (400 g ai/ha)): 57.8% | root dry weight, Dif A122T − A205V (5x (400 g ai/ha)): 47.9% | Phytotoxicity Index, Dif A205V − A122T (6x (480 g ai/ha)): 7.03 | biomass accumulation, Dif A122T − A205V (6x (480 g ai/ha)): 44.6% | plant height, Dif A122T − A205V (6x (480 g ai/ha)): 54.0% | root dry weight, Dif A122T − A205V (6x (480 g ai/ha)): 37.3% | biomass accumulation, % of untreated, Mean (0.5x (40 g ai/ha)): 98.9% | plant height, % of untreated, Mean (0.5x (40 g ai/ha)): 99.4% | root dry weight, % of untreated, Mean (0.5x (40 g ai/ha)): 99.9% | biomass accumulation, % of untreated, Mean (1x (80 g ai/ha)): 96.8% | plant height, % of untreated, Mean (1x (80 g ai/ha)): 98.6% | root dry weight, % of untreated, Mean (1x (80 g ai/ha)): 97.5% | biomass accumulation, % of untreated, Mean (2x (160 g ai/ha)): 94.9% | plant height, % of untreated, Mean (2x (160 g ai/ha)): 97.3% | root dry weight, % of untreated, Mean (2x (160 g ai/ha)): 94.1% | biomass accumulation, % of untreated, Mean (3x (240 g ai/ha)): 92.8% | plant height, % of untreated, Mean (3x (240 g ai/ha)): 95.6% | root dry weight, % of untreated, Mean (3x (240 g ai/ha)): 89.4% | biomass accumulation, % of untreated, Mean (4x (320 g ai/ha)): 87.8% | plant height, % of untreated, Mean (4x (320 g ai/ha)): 93.7% | root dry weight, % of untreated, Mean (4x (320 g ai/ha)): 81.4% | biomass accumulation, % of untreated, Mean (5x (400 g ai/ha)): 79.3% | plant height, % of untreated, Mean (5x (400 g ai/ha)): 89.8% | root dry weight, % of untreated, Mean (5x (400 g ai/ha)): 78.7% | biomass accumulation, % of untreated, Mean (6x (480 g ai/ha)): 74.6% | plant height, % of untreated, Mean (6x (480 g ai/ha)): 84.2% | root dry weight, % of untreated, Mean (6x (480 g ai/ha)): 61.7% | Phytotoxicity Index, Mean (0.5x (40 g ai/ha)): 0.3 | Phytotoxicity Index, Mean (1x (80 g ai/ha)): 0.3 | Phytotoxicity Index, Mean (2x (160 g ai/ha)): 0.3 | Phytotoxicity Index, Mean (3x (240 g ai/ha)): 0.3 | Phytotoxicity Index, Mean (4x (320 g ai/ha)): 0.5 | Phytotoxicity Index, Mean (5x (400 g ai/ha)): 0.8 | Phytotoxicity Index, Mean (6x (480 g ai/ha)): 1.2
